Data as given in patent US20210170033A1, “NOVEL CONJUGATES OF A PHARMACEUTICAL AGENT AND A MOIETY CAPABLE OF BINDING TO A GLUCOSE SENSING PROTEIN” (SANOFI, priority 2017, published 2021).

These compounds were tested on A2780 cells (assay: Deoxy-glucose uptake assay in A2780 cells (14C 2-deoxy-D-glucose transport)). Conditions: Homo sapiens, 20 min; inhibition of 14C 2-deoxy-D-glucose transport into A2780 cells; 20 min compound incubation; read-out: IC50.
Assay type: cell-based
Procedure: 1. Deoxy-Glucose Uptake Assay in A2780 Cells:
For measurement of ^14C 2-deoxy-D-glucose transport into A2780 cells, cells were seeded in 96-well plates (Cytostar-T Plates Perkin Elmer, 70,000 cells/180 μl/well) in medium complete (RPMI1640+Glutamax (Life technologies #61870)) and grown for 48 hours. After 48 h, cells were washed once with 180 μL KRB (Krebs Ringer Bicarbonate) buffer, and stimulated in a dose dependent manner by adding 10 μL of test compound dilution 0-1.1 mM (11 times higher concentration than final) or 10 μL of 1.1 mM Cytochalasin B solution as negative control, to 90 μL KRB buffer and incubated for 20 minutes. After compound stimulation, the transport of ^14C 2-deoxy-D-glucose was started by adding of 50 μL 2-^14C[U] 2-deoxy-D-glucose solution (109.1 μM 2-deoxy-D-glucose cold and 33 μM 2-^14C[U] 2-deoxy-D-glucose 0.1 μCi/well) for 20 minutes. Transport was stopped by adding 50 μL/well 96 μM Cytochalasin B solution. Plates were measured in a 96-well Wallac Microbeta device. The cpm (counts per minute) values were used to determine the % inhibition values for the test compounds within each experiment. In a first step, the mean background value generated by Cytochalasin B (a potent glucose transporter inhibitor) treated cells, was subtracted from the mean values of the treated cells. All mean values were obtained from triplicates. For %-Inhibition results, the mean value of the untreated cells (just KRB) was set as 100%. All other mean values were calculated to this relation. IC50 were obtained by regression analysis of dose response curve with 7 or 14 concentrations, respectively, for each compound.
COc1cc(OCc2cccc(NC(=O)COCCOCC(=O)O)c2)c(Cl)cc1C(=O)O[C@H]1[C@@H](OC)O[C@H](CO)[C@@H](O)[C@@H]1O [Example 400] showed an IC50 of 47.1 µM. CCOC(=O)c1cccc(COc2c(Cl)cc(C(=O)O[C@H]3[C@@H](OC)O[C@H](CO)[C@@H](O)[C@@H]3O)c(C)c2Cl)n1 [Example 271] gave an IC50 of 4.2 µM. Compound C=CCO[C@@H]1O[C@H](COC(=O)c2ccc(OCc3ccccc3)c(OC)c2)[C@@H](O)[C@H](O)[C@H]1O [Example 11] has an IC50 of 67.3 µM. Compound COC(=O)c1cccn2cc(COc3cc(OC)c(C(=O)N[C@H]4[C@@H](OC)O[C@H](CO)[C@@H](O)[C@@H]4O)cc3Cl)nc12 [Example 396] has an IC50 of 17.3 µM. For CO[C@H]1O[C@H](CO)[C@@H](O)[C@H](O)[C@H]1OC(=O)c1cc(Cl)c(OCc2cccc(CNC(=O)CCCCCCCCC(=O)OC(C)(C)C)c2)c(Cl)c1C [Example 456], the IC50 was 25 µM. COc1cc(OCc2ccc(/C=C/C(=O)NCCCC(=O)OC(C)(C)C)cc2)c(Cl)cc1C(=O)N[C@H]1[C@@H](OC)O[C@H](CO)[C@@H](O)[C@@H]1O [Example 236] gave an IC50 of 0.4 µM. Work on COc1c(C(=O)N[C@H]2[C@H](OC)O[C@H](CO)[C@@H](O)[C@@H]2O)cc(Cl)c(OCc2ccccc2)c1Cl [Example 332] yielded an IC50 of 31.3 µM. For COC(=O)[C@H](CCCCNC(=O)CCC(=O)NCc1cccc(COc2cc(OC)c(C(=O)O[C@H]3[C@@H](OC)O[C@H](CO)[C@@H](O)[C@@H]3O)cc2Cl)c1)NC(=O)OC(C)(C)C [Example 385], the IC50 was 22.3 µM. Work on CO[C@H]1O[C@H](CO)[C@@H](O)[C@H](O)[C@H]1NC(=O)c1cc(Cl)c(OCc2ccc(C(=O)OC(C)(C)C)cc2)c(Cl)c1C [Example 296] yielded an IC50 of 7.6 µM. COc1cc(OCc2ccc(-c3csnn3)cc2)c(Cl)cc1C(=O)O[C@H]1[C@@H](OC)O[C@H](CO)[C@@H](O)[C@@H]1O [Example 476] showed an IC50 of less than 0.1 µM. With COC(=O)[C@H](CCCCNC(=O)CNc1cc(COc2c(Cl)cc(C(=O)N[C@H]3[C@@H](OC)O[C@H](CO)[C@@H](O)[C@@H]3O)c(C)c2Cl)cnc1OC)NC(=O)OC(C)(C)C [Example 388] the IC50 was 52.9 µM. COC(=O)[C@H](CCCCNC(=O)CCCC(=O)NCc1cccc(COc2c(Cl)cc(C(=O)N[C@H]3[C@@H](OC)O[C@H](CO)[C@@H](O)[C@@H]3O)c(C)c2Cl)c1)NC(=O)OC(C)(C)C [Example 460] showed an IC50 of 84.6 µM. Compound COc1cc(OCc2nc3ccccc3n2CCCCCCCCCCCCCCCC(=O)O)c(Cl)cc1C(=O)N[C@H]1[C@@H](OC)O[C@H](CO)[C@@H](O)[C@@H]1O [Example 421] has an IC50 of 15.1 µM. Compound COc1cc(OCc2cccc(NC(=O)CCC(=O)OC(C)(C)C)c2)c(Cl)cc1C(=O)N[C@H]1[C@@H](OC)O[C@H](CO)[C@@H](O)[C@@H]1O [Example 428] has an IC50 of 4.4 µM. With COc1cc(C(=O)O[C@H]2[C@@H](O)[C@@H](CO)O[C@H](OC)[C@@H]2O)cc(Cl)c1OCc1nc2ccccc2n1C(C)C [Example 127] the IC50 was 32.7 µM. Compound COC(=O)c1cc(COc2c(Cl)cc(C(=O)N[C@H]3[C@@H](OC)O[C@H](CO)[C@@H](O)[C@@H]3O)c(C)c2Cl)ccc1Cl [Example 257] has an IC50 of 7.2 µM. Compound CO[C@H]1O[C@H](CO)[C@@H](O)[C@H](O)[C@H]1OC(=O)c1cc(Cl)c(OCc2cccc(CO)n2)c(Cl)c1C [Example 259] has an IC50 of 12.2 µM. In the case of COC(=O)c1ccc(COc2c(Cl)cc(C(=O)N[C@H]3[C@@H](OC)O[C@H](CO)[C@@H](O)[C@@H]3O)c(C)c2Cl)cn1 [Example 245], the IC50 is reported as 63.6 µM. With CO[C@H]1O[C@H](CO)[C@@H](O)[C@H](O)[C@H]1OC(=O)c1cc(Cl)c(OCc2nccn2Cc2ccccc2)c(Cl)c1 [Example 117] the IC50 was 10 µM. In the case of COc1cc(C(=O)OC[C@H]2OC(O)[C@H](O)[C@@H](O)[C@@H]2O)cc(Cl)c1OCCc1ccccc1 (stereo partly drawn) [Example 56], the IC50 is reported as 43.2 µM. COC(=O)c1cnc(COc2c(Cl)cc(C(=O)N[C@H]3[C@@H](OC)O[C@H](CO)[C@@H](O)[C@@H]3O)c(C)c2Cl)cn1 [Example 246] was tested, and the IC50 was 51.7 µM. COc1cccc(COc2c(Cl)cc(C(=O)O[C@H]3[C@@H](OC)O[C@H](CO)[C@@H](O)[C@@H]3O)cc2OC)c1 [Example 88] was tested, and the IC50 was 22.2 µM. Work on COc1ccc(COc2c(Cl)cc(C(=O)O[C@H]3[C@@H](OC)O[C@H](CO)[C@@H](O)[C@@H]3O)cc2OC)cc1 [Example 190] yielded an IC50 of 10.2 µM. With COc1cc(OCc2cccc(CNC(=O)CCCCCCC(=O)NCCCCCC(=O)OC(C)(C)C)c2)c(Cl)cc1C(=O)N[C@H]1[C@@H](OC)O[C@H](CO)[C@@H](O)[C@@H]1O [Example 457] the IC50 was 31.7 µM. For CO[C@H]1O[C@H](CO)[C@@H](O)[C@H](O)[C@H]1OC(=O)c1cc(Cl)c(OCCc2cccc(Cl)c2)c(Cl)c1C [Example 242], the IC50 was 19.8 µM. Work on COc1ncc(COc2c(Cl)cc(C(=O)N[C@H]3[C@@H](OC)O[C@H](CO)[C@@H](O)[C@@H]3O)c(C)c2Cl)cc1Cl [Example 210] yielded an IC50 of 0.6 µM. For COc1cc(OCc2cccc(NC(=O)CCCCCCCCC(=O)OC(C)(C)C)c2)c(Cl)cc1C(=O)N[C@H]1[C@@H](OC)O[C@H](CO)[C@@H](O)[C@@H]1O [Example 431], the IC50 was 6.1 µM. In the case of COC(=O)CCCCCCCn1c(COc2cc(OC)c(C(=O)N[C@H]3[C@@H](OC)O[C@H](CO)[C@@H](O)[C@@H]3O)cc2Cl)nc2ccccc21 [Example 470], the IC50 is reported as 61.4 µM. COC(=O)[C@H](CCCCNC(=O)CCCCCNC(=O)CCCCCCC(=O)NCc1cccc(COc2cc(OC)c(C(=O)N[C@H]3[C@@H](OC)O[C@H](CO)[C@@H](O)[C@@H]3O)cc2Cl)c1)NC(=O)OC(C)(C)C [Example 468] gave an IC50 of 27.8 µM. Work on CO[C@H]1O[C@H](CO)[C@@H](O)[C@H](O)[C@H]1NC(=O)c1cc(Cl)c(OCc2cccc(CNC(=O)CCC(=O)OC(C)(C)C)c2)c(Cl)c1C [Example 449] yielded an IC50 of 18.5 µM. With COC(=O)[C@H](CCC(=O)NCc1cccc(COc2cc(OC)c(C(=O)O[C@H]3[C@@H](OC)O[C@H](CO)[C@@H](O)[C@@H]3O)cc2Cl)c1)NC(=O)OC(C)(C)C [Example 369] the IC50 was 11.2 µM. CO[C@H]1O[C@H](CO)[C@@H](O)[C@H](O)[C@H]1NC(=O)c1cc(Cl)c(OCc2ccc3c(cnn3C)c2)c(Cl)c1C [Example 240] was tested, and the IC50 was 6 µM. In the case of CO[C@H]1O[C@H](CO)[C@@H](O)[C@H](O)[C@H]1OC(=O)c1cc(Cl)cc(OCc2ccccc2)c1 [Example 74], the IC50 is reported as 52.3 µM. Compound COc1cc(OCc2nc3ccccc3n2Cc2ccccc2)c(Cl)cc1C(=O)O[C@H]1[C@@H](OC)O[C@H](CO)[C@@H](O)[C@@H]1O [Example 481] has an IC50 of 0.6 µM. For CO[C@@H]1O[C@H](COC(=O)c2cc(OCc3ccccc3)c3cc[nH]c3c2)[C@@H](O)[C@H](O)[C@H]1O [Example 145], the IC50 was 45.6 µM. C#CCCCn1c(COc2c(Cl)cc(C(=O)N[C@H]3[C@@H](OC)O[C@H](CO)[C@@H](O)[C@@H]3O)c(C)c2Cl)cc2ccccc21 [Example 280] gave an IC50 of 5.9 µM. Work on COc1cc(OCc2ccc(-c3nccs3)cc2)c(Cl)cc1C(=O)O[C@H]1[C@@H](OC)O[C@H](CO)[C@@H](O)[C@@H]1O [Example 479] yielded an IC50 of less than 0.1 µM. COc1cc(C(=O)N[C@H]2[C@@H](OC)O[C@H](CO)[C@@H](O)[C@@H]2O)cc(Cl)c1OCc1nc2ccccc2n1C(C)C [Example 238] showed an IC50 of 21.7 µM. With COc1cc(C(=O)N[C@H]2[C@@H](OC)O[C@H](CO)[C@@H](O)[C@@H]2O)cc(Cl)c1OCc1ccccc1 [Example 179] the IC50 was 38 µM. COc1cc(OCc2ccc(OCC(=O)OC(C)(C)C)cc2)c(Cl)cc1C(=O)N[C@H]1[C@@H](OC)O[C@H](CO)[C@@H](O)[C@@H]1O [Example 387] was tested, and the IC50 was 2.6 µM. Work on COC(=O)[C@H](CCCCNC(=O)CCCCCNC(=O)CCC(=O)NCc1cccc(COc2cc(OC)c(C(=O)O[C@H]3[C@@H](OC)O[C@H](CO)[C@@H](O)[C@@H]3O)cc2Cl)c1)NC(=O)OC(C)(C)C [Example 411] yielded an IC50 of 25.9 µM. For CO[C@H]1O[C@H](CO)[C@@H](O)[C@H](O)[C@H]1NC(=O)c1cc(Cl)c(OCc2ccc3c(c2)nnn3C)c(Cl)c1C [Example 260], the IC50 was 75.2 µM. With CO[C@H]1O[C@H](CO)[C@@H](O)[C@H](O)[C@H]1NC(=O)c1cc(Cl)c(OCc2nc3ccccc3n2CCCCCC(=O)OC(C)(C)C)c(Cl)c1C [Example 301] the IC50 was 0.1 µM. For COc1ncc(COc2c(Cl)cc(C(=O)N[C@H]3[C@@H](OC)O[C@H](CO)[C@@H](O)[C@@H]3O)c(C)c2Cl)cc1NCC(=O)OC(C)(C)C [Example 303], the IC50 was 0.2 µM.

Same assay, conditions: Homo sapiens; inhibition of 14C 2-deoxy-D-glucose transport into A2780 cells at 100 μM; read-out: % inh. at 100 μM
O=C(NC[C@@H]1O[C@H](CO)[C@@H](O)[C@H](O)[C@H]1O)c1ccc(COc2ccccc2)o1 [Example 490] showed an inhibition at 100 µM of 20%.
